Test system: ob/ob mice
Experiment: Plasma corticosterone in ob/ob mice after 7-day osmotic minipump treatment
Assay type: in vivo, mouse
Conditions: C57BL/6J ob/ob mice, 86.4 μg/day by osmotic minipump for 7 days
Experimental: A study was performed in 4-6 weeks old C57BL/6J mice homozygous (ob/ob) for the obese gene mutation to assess the effect of [deamino-Pen^1, o-Me-Tyr^2, Arg^8]-AVP (Sigma) a non-selective peptide V1b receptor antagonist on corticosterone concentration. Osmotic minipumps (Alzet Model 1007D, 0.5 μl/h for 7 days) were filled either with the peptide (to deliver 86.4 μg/day for 7 days) or vehicle and primed at least for 4 h at 37° C. before their implantation. A group of mice heterozygous (+/?) for the obese gene mutation was also implanted with osmotic minipumps filled with vehicle alone. After 7 days of treatment blood was collected into EDTA tubes and separated plasma assayed for corticosterone concentration measurement, by using a commercial rat ^125I-corticosterone (Amersham, U.K.).

For “[deamino-Pen^1, o-Me-Tyr^2, Arg^8]-AVP [AVP antagonist]”, the Plasma corticosterone concentration (n=7 per group, vehicle 228.9±63 ng/ml) was 109.9 ± 19.4 ng/mL and the “Plasma corticosterone concentration (effect in words)” value (versus vehicle and lean group) was “reduced”.
